# What was measured:
# LynD = test: 31P NMR of ATP turnover by LynD; assay type: biochemical, Lyngbya sp. PCC 8106; conditions: with and without PatE′
# E. coli YcaO = conditions: absence of substrate, ref [30]; cited from earlier work
smiles,measurement,setting,value
Nc1ncnc2c1ncn2[C@@H]1O[C@H](COP(=O)(O)OP(=O)(O)OP(=O)(O)O)[C@@H](O)[C@H]1O [ATP],products of ATP turnover,LynD,"AMP (not ADP), pyrophosphate (PPi) and phosphate"
same,ATP hydrolysis products,E. coli YcaO,hydrolyzed ATP to AMP and pyrophosphate
